Laboratory results from patent US20230382928A1, “EUROPIUM(III) COMPLEXES AS PH SENSORS” (CISBIO BIOASSAYS, priority 2020, published 2023).

Columns and labels:
[1] = Absorption spectra / molar extinction coefficient (Beer-Lambert); type: physicochemical; details: for λexc (nm): excitation wavelength; for ε: molar extinction coefficient at λexc
Description: The properties of representative complexes of the invention (complexes 14, 18, 21, 78a, 78b, 88a, 88b, 93, 104) were investigated. The presence of the Boc-group was not predicted to alter these properties. The experiments were thus carried out with the Boc group for the functionalized complexes. The absorption and emission spectra were recorded in a pH gradient (pH 4 to pH 10).
(§1) Traditionally, molar extinction coefficients, ε, are calculated using the Beer-Lambert equation and involve measuring the absorbance of a series of solutions of a complex at different known concentrations. A plot of absorbance at a particular wavelength against concentration allows determination of ε from the gradient of the linear correlation. The quantum yield (QY) of the complexes increases as the pH decreases. For complexes 78b, 88a, 88b and 93, the quantum yield at pH 8 is approaching 0 meaning that the complexes are therefore hardly emissive at physiological pH and conversely, these complexes are very bright at pH 4.
This could be useful as excitation at, or near, this wavelength would allow equal excitation of both the unprotonated and protonated complex, which exist in a pH-dependent equilibrium in solution. An isosbestic point was not observed for Complex 14.

[2] = Quantum yield of europium complexes at different pH; type: physicochemical; details: for Q.Y. pH 4 / Q.Y. pH 8: text gives the same values in %; for Q.Y. pH 4 / ΦpH 4 (quantum yield): pH 4; for ΦpH 4 (quantum yield) / ΦpH 8 (quantum yield): λexc 330-332 nm; for Q.Y. pH 8 / ΦpH 8 (quantum yield): pH 8
Description: The properties of representative complexes of the invention (complexes 14, 18, 21, 78a, 78b, 88a, 88b, 93, 104) were investigated. The presence of the Boc-group was not predicted to alter these properties. The experiments were thus carried out with the Boc group for the functionalized complexes. […]
as §1

[3] = Excited state (emission) lifetime at different pH; type: physicochemical
Description: (§2) An emission lifetime value at each pH was obtained by plotting the decay of the emission lifetime over time and fitting the curve to a simple exponential decay model. The pKa values of the complexes were determined for the reversible protonation.

[4] = Fluorescence intensity at 620 nm as a function of pH (Pherastar FS plate reader); type: physicochemical; details: pH 4 to pH 7.8; 0.1% BSA; FIG. 29
Description: The fluorescence intensity of representative complexes of the invention (78a, 78b, 104) was measured using a Plate Reader Pherastar FS equipped with a flash lamp. The buffers (pH 4 to pH 7.8) were distributed in a white 96-well plate, then the lanthanide complexes (10 μL at 110 nM) were distributed in an aqueous solution comprising 0.1% BSA. By way of comparison, the fluorescence intensity of the following complexes was also measured: […]

[5] = pKa determination from emission lifetime variation versus pH
Description: as §2

[6] = Time-gated emission intensity, pH 4/pH 8 ratio; type: physicochemical; details: λem=613.5 nm
Text: Data was normalised for a 60 μs delay at pH 4.
Data were normalised for a 60-460 μs time window at pH 4. Measurements were taken in NH4CH3CO2 (pH 4 and 5), MES (pH 5.5, 6 and 6.5), HEPES (pH 7) and NH4HCO3 (pH 8) buffers (all 0.1 M with 0.1 M NaCl).
A benefit of the long-lived lifetime of emission for the lanthanides is the possibility of performing time-gated measurements. Further to this, as a result of the ‘switch-on’ nature of complex 18, the unprotonated and protonated forms differ in emission lifetime. These properties allow the unique opportunity to control, to some degree, the apparent pKa value as well as the relative degree of ‘switching-on’ of the probe by changing the time window. This aspect is illustrated in practice using appropriate buffers of different pH (in the presence of 0.1 M NaCl) in FIG. 28.
By measuring the emission intensity of the hypersensitive ΔJ=2 band at different pH with a longer delay time after excitation (FIG. 28 top), a shallower curve was obtained (a lower apparent pKa).
A summary of the ratios of emission intensity (at λem=613.5 nm) at pH 4 (sensor on) and pH 8 (sensor off), where the emission signal was measured between different time windows, for complex 18 is presented in Table 4.
The extent of the switch-on response of the complex may be quantified, for comparison purposes, as the ratio of the emission intensity at the maximum of the ΔJ=2 band at pH 4, when the sensor is fully switched ‘on’, and pH 8, when the sensor is effectively ‘off’.

ε (molar extinction coefficient) ([1]; at the wavelength (330-336 nm)) [M⁻¹ cm⁻¹]	SMILES	λexc (nm) [1] [nm]	ε [1] [M⁻¹ cm⁻¹]	Q.Y. pH 4 [2] [%]	ΦpH 4 (quantum yield) [2] [%]	Q.Y. pH 8 [2] [%]	ΦpH 8 (quantum yield) [2] [%]	Excited state lifetime ([3]; pH 4) [ms]	Excited state lifetime ([3]; pH 5) [ms]	Excited state lifetime ([3]; pH 6) [ms]	Excited state lifetime ([3]; pH 7) [ms]	variation of fluorescence intensity at 620 nm as a function of pH [4]	Excited state lifetime ([3]; pH 8) [ms]	pKa ([5]; 295 K, I = 0.1M NaCl)	Excited state lifetime ([3]; pH 9) [ms]	ε (molar extinction coefficient) ([1]; at the wavelength (330-331 nm)) [L M^−1 cm^−1]	further results
12000	CCN(CC)c1cc(C#Cc2cc(CN(CC(=O)O)CC(=O)O)nc(CN(CC(=O)O)CC(=O)O)c2)ccc1OCCCN [Complex 104]	330	12000	3.2	3.2	0.17	0.17	0.38	0.37	0.35	0.32	pH sensitive	–	–	–	–	Excited state lifetime ([3]; pH 8, listed as 104): 0.3 ms; Excited state lifetime ([3]; pH 8, listed as drawing 127): 0.30 ms; pKa ([5]; 0.1 M NaCl (ionic strength)): 6.35
–	CCN(CC)c1cc(C#Cc2cc(CN3CCN(Cc4cc(C#Cc5ccc(OCCCC(=O)O)c(N(CC)CC)c5)cc(P(C)(=O)[O-])n4)CCN(Cc4cc(CCCNC(=O)OC(C)(C)C)cc(P(C)(=O)[O-])n4)CC3)nc(P(C)(=O)[O-])c2)ccc1OCCCC(=O)O.[Eu+3] [Complex 77a]	–	–	–	–	–	–	0.97	0.95	0.53	0.39	–	0.27	–	–	–	–
–	CCN(CC)c1cc(C#Cc2cc(CN3CCN(Cc4cccc(P(C)(=O)[O-])n4)CCN(Cc4cc(C#Cc5ccc(OC)c(N(CC)CC)c5)cc(P(C)(=O)[O-])n4)CC3)nc(P(C)(=O)[O-])c2)ccc1OC.[Eu+3] [Complex 18]	328	35000	17.6	–	0.2	–	–	0.96	0.78	0.47	–	0.34	6.3	0.34	–	Excited state lifetime ([3]; pH 3): 1 ms; Excited state lifetime ([3]; pH 4, listed as 18): 1 ms; Excited state lifetime ([3]; pH 4, listed as drawing 63): 1.00 ms; ratio of emission intensity pH 4/pH 8 ([6]; time window 60-460 μs): 32; ratio of emission intensity pH 4/pH 8 ([6]; time window 1000-2000 μs): 227; ratio of emission intensity pH 4/pH 8 ([6]; time window 1500-2500 μs): 465
–	CCN(C)c1cc(C#Cc2cc(CN3CCN(Cc4cc(C#Cc5ccc(OCCCC(=O)NCCCS(=O)(=O)[O-])c(N(C)CC)c5)cc(P(C)(=O)[O-])n4)CCN(Cc4cc(CCCNC(=O)OC(C)(C)C)cc(P(C)(=O)[O-])n4)CC3)nc(P(C)(=O)[O-])c2)ccc1OCCCC(=O)NCCCS(=O)(=O)[O-].[Eu+3] [Complex 78b]	330	39000	14.5	14.5	–	0.01	1.05	0.77	0.42	0.29	pH sensitive	–	5.34	–	39000	Excited state lifetime ([3]; pH 8, listed as 78b): 0.3 ms; Excited state lifetime ([3]; pH 8, listed as drawing 110): 0.30 ms
–	CCN(CC)c1cc(C#Cc2cc(CN3CCN(Cc4cc(C#Cc5ccc(OC)c(N(CC)CC)c5)cc(P(C)(=O)[O-])n4)CCN(Cc4cc(C#Cc5ccc(OC)c(N(CC)CC)c5)cc(P(C)(=O)[O-])n4)CC3)nc(P(C)(=O)[O-])c2)ccc1OC.[Eu+3] [Complex 21]	331	45000	17	–	0.1	–	0.84	0.83	0.59	0.32	–	0.25	6.21	0.24	45000	–
35000	CCN(CCCS(=O)(=O)O)c1cc(C#Cc2cc(CN3CCN(Cc4cc(C#Cc5ccc(OC)c(N(CC)CCCS(=O)(=O)O)c5)cc(P(C)(=O)O)n4)CCN(Cc4cc(CCCNC(=O)OC(C)(C)C)cc(P(C)(=O)O)n4)CC3)nc(P(C)(=O)O)c2)ccc1OC [Complex 88a]	332	35000	13.4	13.4	–	0.06	1.07	0.76	0.41	0.29	–	0.31	–	0.31	–	pKa ([5]; 0.1 M NaCl (ionic strength)): 5.2
–	CCN(CC)c1cc(C#Cc2cc(CN3CCN(Cc4cc(C#Cc5ccc(OCCCC(=O)NCCCS(=O)(=O)[O-])c(N(CC)CC)c5)cc(P(C)(=O)[O-])n4)CCN(Cc4cc(CCCNC(=O)OC(C)(C)C)cc(P(C)(=O)[O-])n4)CC3)nc(P(C)(=O)[O-])c2)ccc1OCCCC(=O)NCCCS(=O)(=O)[O-].[Eu+3] [Complex 78a]	330	39000	16	16	0.3	0.3	1.04	0.98	–	0.34	pH sensitive	0.25	6.20	–	39000	Excited state lifetime ([3]; pH 6, listed as 78a): 0.7 ms; Excited state lifetime ([3]; pH 6, listed as drawing 109): 0.70 ms

SMILES	ε (molar extinction coefficient) ([1]; at the wavelength (330-336 nm)) [M⁻¹ cm⁻¹]	λexc (nm) [1] [nm]	ε [1] [M⁻¹ cm⁻¹]	Q.Y. pH 4 [2] [%]	ΦpH 4 (quantum yield) [2] [%]	Q.Y. pH 8 [2] [%]	ΦpH 8 (quantum yield) [2] [%]	Excited state lifetime ([3]; pH 4) [ms]	Excited state lifetime ([3]; pH 5) [ms]	Excited state lifetime ([3]; pH 6) [ms]	Excited state lifetime ([3]; pH 7) [ms]	variation of fluorescence intensity at 620 nm as a function of pH [4]	Excited state lifetime ([3]; pH 8) [ms]	pKa ([5]; 295 K, I = 0.1M NaCl)	Excited state lifetime ([3]; pH 9) [ms]	ε (molar extinction coefficient) ([1]; at the wavelength (330-331 nm)) [L M^−1 cm^−1]	further results
CCN(CC)c1cc(C#Cc2cc(CN3CCN(Cc4cccc(P(C)(=O)[O-])n4)CCN(Cc4cccc(P(C)(=O)[O-])n4)CC3)nc(P(C)(=O)[O-])c2)ccc1OC.[Eu+3] [Complex 14]	11450	331	11450	16.8	16.8	0.5	0.5	1.16	1.15	1.06	0.74	–	0.53	6.75	–	–	isosbestic point ([1]; absorption spectra pH 4 to 10): not observed; Excited state lifetime ([3]; pH 9, listed as 14): 0.5 ms; Excited state lifetime ([3]; pH 9, listed as drawing 59): 0.50 ms
